Article PMC11513920, “Building Metabolically Stable and Potent Anti-HIV Thioether-Lipid Analogues of Tenofovir Exalidex: A thorough Pharmacological Analysis” (Journal of Medicinal Chemistry, 2024)

Tests used:
HEK293T cells = experiment: Cellular cytotoxicity (cell viability, CellTiter 96 or resazurin); details: HEK293T cells, 48 h, compounds formulated with HSA (5:1)
Description: (§9) Second, HIV IC50 and cellular CC50 were determined with a pseudoviral, whole (HEK293T) cell, nonreplicative HIV assay, using the HIV-1 subtype C strain MJ4 (refer to Experimental Methods). To account for the unique amphiphilic properties of TXL and the novel HTP-based prodrugs, all compounds were formulated in a human serum albumin (HSA) solution (5:1 drug:protein).
(§10) Assessment of cytotoxicity and antiviral activity of all final compounds in vitro was conducted according to previously reported procedures.[39] In summary, human embryonic kidney (HEK293T) cells maintained in high glucose (25 mM), Dulbecco’s modified Eagle’s medium (DMEM) supplemented with fetal bovine serum (10%), sodium pyruvate (1 mM), L-glutamine (2 mM), HEPES (25 mM), and gentamicin (50 μg/mL) were used for determinations. The cells were maintained in an incubator at 37 °C under 5% CO2 in a humidified atmosphere. For both cytotoxicity and antiviral screening, all compounds were evaluated in duplicate in at least two independent experiments. All final compounds were formulated with human serum albumin (HSA, 5:1 compound to HSA molar ratio) and subsequently diluted with complete DMEM to 200 μM. Fifty microliters of test compound serial dilutions (3-fold) were prepared in 96-well culture plates, after which 50 μL of HEK293T cells (2 × 10^4 cells/well) was added. […] Cytotoxicity was then assessed by quantifying cell viability using the CellTiter 96 Aqueous One Solution Cell Proliferation Assay (Promega, Madison, WI) or resazurin sodium salt (cat# R7017, Merck, Darmstadt, Germany).[61] […] Antiviral activity was then assessed using a single-cycle, nonreplicating, envelope deleted HIV pseudoviral in vitro assay.[62],[63] The assay relies on the introduction of the firefly luciferase gene into HEK293T cells through infection with HIV-like viral particles, containing Reverse Transcriptase (RT) and Integrase (IN) from the HIV-1 subtype C strain MJ4.[64] The expression of the luciferase in the cells is directly proportional to the level of infection by the HIV-like viral particles and can be used to assess the inhibition of HIV-1 RT and IN. To evaluate anti-HIV activity, 3-fold serial dilutions of all final compounds were prepared in 50 μL over the noncytotoxic concentration range (as determined from the cytotoxicity screens described above) in 96-well culture plates. HEK293T cells (2 × 10^4 cells/well) and HIV-like viral particles, standardized to produce a luminescence signal of 1 × 10^6 relative light units (RLUs) in the growth medium only control, were combined, and 50 μL was added to the wells containing serially diluted test compounds. […] The expression of luciferase was subsequently quantified by adding 100 μL of the Bright-Glo Luciferase Assay substrate (Promega, Madison, WI) to each well of the 96-well plates. After incubation at rt for 3 min, luminescence was quantified on the GloMax Explorer Multimode Microplate Reader (Promega, Madison, WI).

[1] = as above; details: human, CC50, HEK293T cells, compounds formulated with HSA (5:1)
Description: as §9, §10

[2] = Human liver microsome stability; details: for half-life at 3 μM / half-life at 2.083 h, 3 µM / remaining at 2 h, 3 μM: human; for remaining at 2 h, 3 μM: HLM % remaining; for remaining at 2 h, 3 μM / HLM % remaining: relative percent remaining of prodrug at 120 min
Description: Human liver microsomes (HLMs, 20 mg/mL) and CD-1 mouse liver microsomes (MLMs, 20 mg/mL) were purchased from Xenotech. NADPH was purchased from Sigma-Aldrich and prepared in 10 mM stock solutions of distilled H2O (Invitrogen UltraPure). […] Test compounds and positive controls were initially dissolved in MeOH to make 10 mM stock solutions. Sample solutions were then further diluted in 70/30 MeOH/H2O to 500 μM. Next, the reactions were prepared by mixing human or mouse liver microsomes (55 μL) with potassium phosphate buffer (100 mM, 928 μL) in 1.5 mL Eppendorf tubes. The test compounds (6.6 μL of 500 μM solution) were subsequently added to the suspensions, and the reaction mixtures were incubated at 37 °C for 5 min. Afterward, the liver microsome reactions were initiated with 110 μL of 10 mM NADPH and further incubated at 37 °C for the designated time course of the study. […] Each test compound was run in tandem with positive and negative control experiments for quality assurance. Positive control reactions were conducted at a final volume of 550 μL for a single run of each time point.
For both LM and plasma stability assays, each data point was analyzed in duplicate using in-between blank washes to avoid carry over and to equilibrate the column for the subsequent runs. Averages of these duplicate for individual compounds at each time point were then normalized to the data at 0 min, representing 100% test compound remaining or 0% metabolism. Half-lives (t1/2) were calculated by plotting ln of % test compound remaining versus time and performing linear regression to determine slope.
Metabolic Stability Assays
Liver Microsome Stability
Liver Microsome Stability Assay Setup Example
Quenching Mixture: 100 µL MeOH with ISTD (2 µM d5-7-ethoxycoumarin).
Final Volume After Quenching: 200 µL (100 µL from reaction mixture + 100 µL quencher
solution; ISTD final concentration of 1.0 µM).

[3] = tested on: HIV-1 subtype C strain MJ4; experiment: Single-cycle non-replicating HIV pseudoviral luciferase assay in HEK293T cells; details: Human immunodeficiency virus 1, HEK-293T, read-out: HIV IC50
Description: as §9, §10

HepaRG cells [4] = experiment: HepaRG cellular uptake; details: 20 µM
Description: (§11) Naturally, due the metabolic complexity of HepaRG cells, we specifically analyzed prodrug cellular uptake and stability, as represented by Cmax and intrinsic clearance (Clint,u) accordingly (Figure 7 and Table 9).
(§12) The HepaRG cell line (HPRGC10, Thermo Fisher Scientific) was used to evaluate the cellular permeability and metabolic stability for select final compounds in vitro. The cells were initially thawed with working media composed of HepaRG Thaw, Plate, & General Purpose Medium Supplement (HPRG670), Williams Medium E (100 mL), and GlutaMax (1 mL), all purchased from Thermo Fisher Scientific. […] After the thawing medium was aspirated from each well, the cells were cultured for an additional 6 days with working media consisting of HepaRG Maintenance/Metabolism Medium Supplement (HPRG720), Williams Medium E (500 mL), and GlutaMax (1 mL), all purchased from Thermo Fisher Scientific. Upon completing the 7-day culture period, HepaRG cells were plated in enough wells to allow for duplicate analysis of prodrugs in two independent cellular uptake or metabolic stability experiments. All studied compounds were formulated with human serum albumin (HSA, 5:1 compound to HSA molar ratio) and subsequently diluted to a 20 μM final concentration with assay medium composed of serum-free INVITROGRO HI Medium and TORPEDO Antibiotic Mix purchased from BioIVT. For cellular uptake determinations, the maintenance/metabolism medium was first aspirated from each well, and then the plated cells were spiked with 1.0 mL of test compound stock solution. Subsequently, the plate was incubated at 37 °C under 5% CO2 environment over the desired time course (seven data points/compound). Blank wells not treated with prodrug were included in assay runs as controls and initial time points (0 min). At each time point, the test compound solution was removed from the appropriate wells, and the plated cells were washed with 1.0 mL of DPBS twice. The HepaRG cells were then extracted with 500 μL of cold ISTD solution (1 μM 7-ethoxy-d5-coumarin in 70/30 MeOH/H2O), and the quenched aliquots were centrifuged at 15,000 g for 10 min at 4 °C. […] After obtaining prodrug Cmax and Tmax values from the cellular uptake assay, HepaRG metabolic stability was then assessed. Following the initial 7-day culture procedure, the maintenance/metabolism medium was aspirated from each well, and the plated cells were spiked with 1.0 mL of test compound stock solution. […] The test compound solution was then removed from each well and replaced with untreated dilution medium (i.e., serum-free INVITROGRO HI Medium and TORPEDO Antibiotic Mix), initializing the stability determination. The HepaRG plate was once more incubated at 37 °C under 5% CO2 atmosphere over the desired time course (nine data points/compound), and sample preparation and analysis were handled in identical fashion to cellular uptake experiments.

HepaRG cellular uptake = details: human, HepaRG Cmax, 20 μM, HSA formulation 5:1, recorded after 3 h incubation
Description: as §11, §12

HepaRG cells [5] = experiment: HepaRG cellular metabolic stability; details: for HepaRG t1/2: after 3 h loading at 20 μM, 37 °C
[6] = HepaRG cellular metabolic stability; details: human, other cell line; for hepatocyte CLint at 20 μM: HepaRG Clint,u, calculated from cellular t1/2; for half-life at 20 μM: HepaRG t1/2, after 3 h loading at 20 μM, 37 °C
Human plasma stability = type: in vitro ADME; details: both sexes, human, plasma; 3 μM, 37 °C, 240 min course; read-out: human plasma t1/2
Description: (§1) Human plasma (lithium heparin (LiHep) mixed, gender pooled, 0.2 μm filtered) and mouse plasma (BALB/C, LiHep mixed, male pooled, 0.2 μm filtered) were purchased from BioIVT. Procaine (Sigma-Aldrich) served as a positive control for both human and mouse plasma experiments. […] Next, the human or mouse plasma (994 μL) was aliquoted into 1.5 mL Eppendorf tubes with duplicates (reactions A and B) being prepared for each compound. The plasma was then incubated at 37 °C for 10 min. […] This procedure provided duplicate experiments with a final volume of 1000 μL (<0.2% organic solvent content) and a final test compound concentration of 3 μM. Aliquots (100 μL) were removed from each reaction mixture at 0, 30, 60, 120, and 240 min time intervals and quenched with 150 μL of cold ISTD solution (2 μM 7-ethoxy-d5-coumarin in MeOH). […] The positive control reaction was conducted at a final volume of 1000 μL for a single run of each time point. Finally, the negative control experiment was conducted with test compounds in Dulbecco’s phosphate buffered saline without calcium and magnesium (DPBS, Fisher Scientific, 143 μL) and analyzed at the 240 min time point.
(§2) Plasma Stability Assay Setup Example
(§3) Test Compound: 994 µL Human or Mouse Plasma + 6.0 µL TC (500 µM, Vial A).
(§4) 994 µL Human or Mouse Plasma + 6.0 µL TC (500 µM, Vial B).
(§5) Positive Control: 994 µL Human or Mouse Plasma + 6.0 µL Procaine (500 µM).
(§6) Negative Control: 142 µL DPBS (1X, pH 7.1-7.3) + 0.9 µL TC (500 µM).
(§7) Quenching Mixture: 150 µL MeOH with ISTD (2 µM d5-7-ethoxycoumarin).
(§8) Final Volume After Quenching: 250 µL (100 µL from reaction mixture and 150 µL quencher
solution; ISTD final concentration of 1.2 µM).
Human Plasma Stability of Compound 2a at 37 °C
Figure S29. In vitro human plasma stability of 2a (5 points over 240 min) with procaine serving

Mouse plasma stability = type: in vitro ADME; details: male, BALB/C, mouse, plasma; 3 μM, 37 °C, 240 min course; read-out: mouse plasma t1/2
Description: as §1, §2, §3, §4, §5, §6, §7, §8
solution; ISTD final concentration of 1.2 µM). […]

[7] = microsomes, HLM t1/2, HLM 1 mg/mL, 3 μM compound, NADPH, 37 °C, 120 min course

Structure (SMILES)	CC50 at 48 h [1] [µM]	half-life at 3 μM [2, 7] [h]	half-life at 2.083 h, 3 µM [2, 7] [h]	other results
CCCCCCCCCCCCCCCCCSCCOP(=O)(O)CO[C@H](C)Cn1cnc2c(N)ncnc21.N [2b]	29	1.1	1.1 ± 0.0433	CC50 (HEK293T cells): 28.6 ± 3.7 µM
CCCCCCCCCCCCCSCCCCCCOP(=O)(O)CO[C@H](C)Cn1cnc2c(N)ncnc21.N [2c]	> 100	1.1	1.1 ± 0.05	–
CCCCCCCCCCSCCCCCCCCCOP(=O)(O)CO[C@H](C)Cn1cnc2c(N)ncnc21.N [2d]	> 100	–	0.222 ± 0.00833	–
CCCCCCCSCCCCCCCCCCCCOP(=O)(O)CO[C@H](C)Cn1cnc2c(N)ncnc21.N [2e]	> 100	–	0.3433 ± 0.00167	–
CCCCSCCCCCCCCCCCCCCCOP(=O)(O)CO[C@H](C)Cn1cnc2c(N)ncnc21.N [2f]	> 100	–	0.32833 ± 5e-05	–
CCCCCCCCCCCCSCCCOP(=O)(O)CO[C@H](C)Cn1cnc2c(N)ncnc21.N [2g]	> 100	–	0.188 ± 0.00333	–
CCCCCCCCCCCCCCSCCCOP(=O)(O)CO[C@H](C)Cn1cnc2c(N)ncnc21.N [2h]	> 100	–	0.26 ± 0.00167	–
C#CCCCCCCCCCCCCCCSCCCOP(=O)(O)CO[C@H](C)Cn1cnc2c(N)ncnc21 [15b]	–	–	–	IC50 [3]: 0.024 to 0.028 µM; half-life at 3 μM ([2]; liver microsomes): > 1.58 h; half-life at 2.083 h, 3 µM ([2]; liver microsomes): 1.6 ± 0.03 h
C[C@H](Cn1cnc2c(N)ncnc21)OCP(=O)(O)OCCCSCCCCCCCCCCCCC#C[Si](C)(C)C.N [15c]	> 100	> 1.58	–	IC50 [3]: 0.024 to 0.028 µM; HLM t1/2 ([2]; HLM 1 mg/mL, 3 μM compound, NADPH, 37 °C, 120 min course): > 2 h; remaining at 2 h, 3 μM ([2]; microsomes): 82%
CC(C)[Si](C#CCCCCCCCCCCCSCCCOP(=O)(O)CO[C@H](C)Cn1cnc2c(N)ncnc21)(C(C)C)C(C)C.N [15d]	59.3 ± 2.4	> 2	–	remaining at 2 h, 3 μM ([2]; microsomes): > 95%
C[C@H](Cn1cnc2c(N)ncnc21)OCP(=O)(O)OCCCSCCCCCCCCCCCCC#CC(C)(C)C.N [15e]	> 100	> 2	–	mean prodrug concentration in HepaRG cells (HepaRG cells [4]; 0.5 h): 169.76 ng/mL; mean prodrug concentration in HepaRG cells (HepaRG cells [4]; 1 h): 211.84 ng/mL; mean prodrug concentration in HepaRG cells (HepaRG cells [4]; 2 h): 233.02 ng/mL; mean prodrug concentration in HepaRG cells (HepaRG cells [4]; 3 h): 241.98 ng/mL; mean prodrug concentration in HepaRG cells (HepaRG cells [4]; 4 h): 281.89 ng/mL; mean prodrug concentration in HepaRG cells (HepaRG cells [4]; 6 h): 321.96 ng/mL; Cmax at 3 h, 20 μM (HepaRG cellular uptake): 242 ± 5.5 ng/mL; IC50 [3]: 0.196 µM; HepaRG t1/2 (HepaRG cells [5]): 1.11 ± 0.0833 h; HepaRG Clint,u (HepaRG cells [5]; calculated from cellular t1/2): 18.9 μL/min/million cells; hepatocyte CLint at 20 μM [6]: 18 to 19 µL/min/1e6 cells; half-life at 20 μM [6]: 1.12 to 1.18 h; remaining at 2 h, 3 μM ([2]; microsomes): 71%
C[C@H](Cn1cnc2c(N)ncnc21)OCP(=O)(O)OCCCSCCCCCCCCCCC#Cc1ccccc1.N [15f]	> 100	1.18	1.19 ± 0.0183	–
C[C@H](Cn1cnc2c(N)ncnc21)OCP(=O)(O)OCCCSCCCCCCCCCCC#Cc1ccc(F)cc1.N [15g]	> 100	> 2	–	remaining at 2 h, 3 μM ([2]; microsomes): 67%
C[C@H](Cn1cnc2c(N)ncnc21)OCP(=O)(O)OCCCSCCCCCCCCCCC#CC1CCCCC1.N [15h]	> 100	> 2	–	remaining at 2 h, 3 μM ([2]; microsomes): 67%; HLM % remaining [2]: 70%
C[C@H](Cn1cnc2c(N)ncnc21)OCP(=O)(O)OCCCSCCCCCCCCCCCCCCC(C)(C)C.N [16e]	24 ± 1.4	> 2	–	mean prodrug concentration in HepaRG cells (HepaRG cells [4]; 0.5 h): 625.22 ng/mL; mean prodrug concentration in HepaRG cells (HepaRG cells [4]; 1 h): 984.12 ng/mL; mean prodrug concentration in HepaRG cells (HepaRG cells [4]; 3 h): 1100.03 ng/mL; mean prodrug concentration in HepaRG cells (HepaRG cells [4]; 4 h): 1000.18 ng/mL; mean prodrug concentration in HepaRG cells (HepaRG cells [4]; 6 h): 1196.77 ng/mL; Cmax at 3 h, 20 μM (HepaRG cellular uptake): 1100 ± 63.6 ng/mL; IC50 [3]: 0.177 µM; HepaRG t1/2 (HepaRG cells [5]): 2.052 ± 0.05 h; hepatocyte CLint at 20 μM [6]: 10.2 µL/min/1e6 cells; half-life at 20 μM [6]: 2.05 h; remaining at 2 h, 3 μM ([2]; microsomes): 95%; HLM % remaining [2]: > 95%
C[C@H](Cn1cnc2c(N)ncnc21)OCP(=O)(O)OCCCSCCCCCCCCCCCCc1ccccc1.N [16f]	> 100	1.13	1.14 ± 0.00167	–
C[C@H](Cn1cnc2c(N)ncnc21)OCP(=O)(O)OCCCSCCCCCCCCCCCOc1ccccc1.N [23a]	> 100	0.133	0.14 ± 0.00167	–
C[C@H](Cn1cnc2c(N)ncnc21)OCP(=O)(O)OCCCSCCCCCCCCCCCSc1ccccc1.N [23b]	> 100	–	0.132 ± 0.00333	–
C[C@H](Cn1cnc2c(N)ncnc21)OCP(=O)(O)OCCCSCCCCCCCCCCCOc1ccc(F)cc1.N [23c]	> 100	0.8 to 0.833	0.82833 ± 0.0005	–
C[C@H](Cn1cnc2c(N)ncnc21)OCP(=O)(O)OCCCSCCCCCCCCCCCOC1CCCCC1.N [23d]	> 100	0.8 to 0.833	0.7983 ± 0.00667	–
COC(=O)CCCCCCCCCCCCCCCSCCCOP(=O)(O)CO[C@H](C)Cn1cnc2c(N)ncnc21.N [23e]	> 100	–	0.0917 ± 0.005	–
CCN(CC)CCOC(=O)c1ccc(N)cc1 [Procaine, reference compound]	–	–	–	half-life at 3 μM (Human plasma stability): 24 s; half-life at 3 μM (Mouse plasma stability): 42 s
